Consider 13 molecules from patent publication US11999727B2 (Tango Therapeutics, Inc., priority 2020, dated 2024).

Experiment [1] has as its target T1, PRMT5 (Homo sapiens, UniProt O14744).
T1 construct: purchased Viva (custom protein)
Description: PRMT5 biochemical IC50 assay with no cofactor. The note with it: PRMT5, no cofactor. An excerpt: Table 1 indicates IC50 values (μM) against PRMT5 for exemplary compounds in the presence of SAM as cofactor, with no cofactor, and with MTA as cofactor, respectively (columns 4-6). […] Ki values can be calculated from the IC50 values as described in the Examples section. As detailed in the Examples section, for the assay performed in the presence of SAM, IC50=Ki×1.5 (Ki=IC50/1.5).

The test system of experiment [2] is HAP1 MTAP-deleted cell line. Put plainly: SDMA in-cell western assay, HAP1 MTAP-deleted. In kind it is cell-based. The settings on record: for IC50: Homo sapiens, HAP1, SDMA in-cell western, HAP1 MTAP-deleted; for MTAP intact/deleted ratio: SDMA in-cell western. The gist of the method:
(§1)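 MTAP-null vs endogenous-MTAP HAP1 isogenic cells; in-cell western SDMA readout; IC50 per line.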

The target in experiment [3] is T1, PRMT5. Put plainly: PRMT5 biochemical IC50 assay with MTA as cofactor. The settings on record: PRMT5, MTA as cofactor; read-out: MTA IC50.
Experiment [4] deals with HAP1 MTAP-deleted cell line. Put plainly: Viability assay, MTAP-deleted cell line. In kind it is cell-based. The note with it: Homo sapiens, read-out: HAP1 MTAP deleted viability. An excerpt:
Table 1 additionally indicates IC50 values in a viability assay for the MTAP-deleted cell line (column 10), indicating the effect of treatment with compound on cell survival.

Experiment [5] has as its system HAP1 MTAP-intact cell line. Description: SDMA in-cell western assay, HAP1 MTAP-intact. In kind it is cell-based. The note with it: Homo sapiens, HAP1, SDMA in-cell western, HAP1 MTAP-intact; read-out: MTAP HAP1 intact IC50. The essentials:
as §1

Experiment [6] addresses T1, PRMT5. Description: PRMT5 biochemical IC50 assay with SAM as cofactor. The settings on record: PRMT5, SAM as cofactor; read-out: SAM IC50.
Where [7] appears, read: read-out: HAP1 MTAP deleted IC50.
The mark [8] stands for this setting: IC50 ratio HAP1 MTAP-intact / HAP1 MTAP-deleted.
Setting [9] is: HAP1, viability assay, HAP1 MTAP-deleted.
Setting [10] is: HAP1, viability assay, MTAP-deleted cell line.
[11] abbreviates: read-out: HAP 1 MTAP deleted IC50.
The mark [12] stands for this setting: HAP1, viability IC50, MTAP-deleted cell line.
Setting [13] is: read-out: No Cofactor/ rel IC50.
The mark [14] stands for this setting: HAP1, viability, HAP1 MTAP-deleted cell line.

Structures are written as SMILES. A value given as a limit tells only on which side of the number the result lay.

T1 sequence (O14744 whole entry): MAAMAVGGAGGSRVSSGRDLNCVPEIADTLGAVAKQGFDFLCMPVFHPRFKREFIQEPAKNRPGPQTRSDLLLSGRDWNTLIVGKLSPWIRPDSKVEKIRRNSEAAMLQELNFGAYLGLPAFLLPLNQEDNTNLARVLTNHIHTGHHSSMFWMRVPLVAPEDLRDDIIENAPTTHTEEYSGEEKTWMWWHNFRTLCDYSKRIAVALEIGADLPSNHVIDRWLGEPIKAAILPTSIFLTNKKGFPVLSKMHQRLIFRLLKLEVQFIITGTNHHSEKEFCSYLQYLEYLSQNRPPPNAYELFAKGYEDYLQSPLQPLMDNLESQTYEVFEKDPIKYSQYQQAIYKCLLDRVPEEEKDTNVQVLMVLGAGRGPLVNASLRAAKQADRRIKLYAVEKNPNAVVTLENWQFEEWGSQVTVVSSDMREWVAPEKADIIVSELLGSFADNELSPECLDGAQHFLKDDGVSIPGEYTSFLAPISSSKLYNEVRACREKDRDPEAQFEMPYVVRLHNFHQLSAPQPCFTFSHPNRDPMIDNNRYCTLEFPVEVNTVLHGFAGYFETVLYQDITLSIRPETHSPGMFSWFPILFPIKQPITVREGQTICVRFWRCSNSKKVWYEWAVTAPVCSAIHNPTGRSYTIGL
T1 sequence (Q9BQA1 whole entry partner): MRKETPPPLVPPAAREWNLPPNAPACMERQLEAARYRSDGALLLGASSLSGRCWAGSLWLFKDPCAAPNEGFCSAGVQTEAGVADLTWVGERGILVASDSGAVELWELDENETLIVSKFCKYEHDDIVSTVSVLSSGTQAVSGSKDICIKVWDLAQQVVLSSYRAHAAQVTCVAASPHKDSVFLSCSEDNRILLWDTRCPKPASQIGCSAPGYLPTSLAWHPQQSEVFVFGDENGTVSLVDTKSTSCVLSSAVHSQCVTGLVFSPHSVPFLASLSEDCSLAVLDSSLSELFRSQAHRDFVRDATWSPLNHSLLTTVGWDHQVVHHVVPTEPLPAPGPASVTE

As for `Cc1ncc(NC(=O)C(=O)N2C[C@@H](C)CC[C@@H]2c2ccc3c(c2)CCC(=O)N3)cc1Cl` (single isomer, unassigned) [Compound 727], the IC50 at PRMT5 [1] (read-out: No Cofactor/rel IC50) is above 500 nM; in experiment [2] (setting [7]) it was above 1000 nM; on PRMT5 [3] it was above 500 nM; in experiment [4] (setting [9]), above 10000 nM; in experiment [5], above 1000 nM; on PRMT5 [6], above 500 nM. Besides, in experiment [2] (setting [8]), the MTAP intact/deleted ratio result is recorded as “C (an IC50 ratio of less than 3 fold)”.

On to `C[C@H]1CC[C@H](c2cc(Cl)cc(Cl)c2)N(C(=O)C(=O)Nc2cncc(C(N)=O)c2)C1` (single isomer, unassigned) [Compound 491], for which the IC50 on PRMT5 [1] (read-out: No Cofactor/rel IC50) was 50 to 500 nM; in experiment [2] (setting [7]) it was 100 to 1000 nM; on PRMT5 [3] it was below 50 nM; in experiment [4] (setting [10]), 1000 to 10000 nM; in experiment [5], above 1000 nM; on PRMT5 [6], 50 to 500 nM. For the same molecule, the MTAP intact/deleted ratio entry in experiment [2] (setting [8]) is recorded as “A (an IC50 ratio greater than or equal to 10 fold)”.

Regarding `CCc1cc(NC(=O)C(=O)N2C[C@@H](C)CC[C@@H]2c2ccc3sc(C4CC5CCC(C4)N5C)nc3c2)cnc1N` (stereo partly drawn) [Compound 1187, N-(6-amino-5-ethyl-3-pyridyl)-2-[(2R,5S)-5-methyl-2-[2-(8-methyl-8-azabicyclo[3.2.1]octan-3-yl)-1,3-benzothiazol-5-yl]-1-piperidyl]-2-oxo-acetamide], the IC50 at PRMT5 [1] (read-out: No Cofactor/rel IC50) is below 50 nM; in experiment [2] (setting [7]), below 100 nM; on PRMT5 [3], below 50 nM; in experiment [4] (setting [10]), below 1000 nM; in experiment [5], below 100 nM; on PRMT5 [6], below 50 nM. In addition, the MTAP intact/deleted ratio entry in experiment [2] (IC50 ratio HAP1 MTAP-intact vs HAP1 MTAP-deleted) was “A (an IC50 ratio greater than or equal to 10 fold)”.

`CCc1cc(NC(=O)C(=O)N2C[C@@H](C)CC[C@@H]2c2ccc3c(c2)OCCN3)cnc1N` (racemic) [Compound 870, N-(6-amino-5-ethyl-3-pyridyl)-2-[(2R,5S)-2-(3,4-dihydro-2H-1,4-benzoxazin-7-yl)-5-methyl-1-piperidyl]-2-oxo-acetamide]: the IC50 on PRMT5 [1] (read-out: No Cofactor/rel IC50) is 50 to 500 nM; in experiment [2] (setting [7]) it was below 100 nM; at PRMT5 [3], 50 to 500 nM; in experiment [4] (setting [9]), below 1000 nM; in experiment [5] it was above 1000 nM; on PRMT5 [6] it was 50 to 500 nM. Besides, the MTAP intact/deleted ratio result in experiment [2] (setting [8]) is “A (an IC50 ratio greater than or equal to 10 fold)”.

Consider `Cc1cc([C@@H]2CC[C@@H](C)CN2C(=O)C(=O)Nc2cnc(N)c(C)c2)ccn1` (single isomer, unassigned) [Compound 608], for which the IC50 was below 50 nM on PRMT5 [1] (read-out: No Cofactor/rel IC50); below 100 nM in experiment [2] (setting [11]); below 50 nM on PRMT5 [3]; below 1000 nM in experiment [4] (setting [12]); 100 to 1000 nM in experiment [5]; below 50 nM on PRMT5 [6]. The MTAP intact/deleted ratio result in experiment [2] (setting [8]) is listed as “A (an IC50 ratio greater than or equal to 10 fold)”.

With `CCc1cc(NC(=O)C(=O)N2C[C@@H](C)CC[C@@H]2c2ccc3sc(CN(CC)C(C)C)nc3c2)cnc1N` [Compound 1380, N-(6-amino-5-ethylpyridin-3-yl)-2-((2R,5S)-2-(2-((ethyl(isopropyl)amino)methyl)benzo[d]thiazol-5-yl)-5-methylpiperidin-1-yl)-2-oxoacetamide], the IC50 is below 50 nM at PRMT5 [1] (setting [13]); below 100 nM in experiment [2] (setting [11]); below 50 nM on PRMT5 [3]; below 1000 nM in experiment [4] (setting [14]); 100 to 1000 nM in experiment [5]; 50 to 500 nM at PRMT5 [6]. In addition, the “MTAP intact/deleted ratio” value in experiment [2] (setting [8]) is listed as “A (an IC50 ratio greater than or equal to 10 fold)”.

Take `COc1ncc(NC(=O)C(=O)N2C[C@@H](C)CC[C@@H]2c2ccc(C)nc2)cc1C(N)=O` (single isomer, unassigned) [Compound 770]: the IC50 is above 500 nM on PRMT5 [1] (read-out: No Cofactor/rel IC50); above 1000 nM in experiment [2] (setting [7]); above 500 nM at PRMT5 [3]; above 10000 nM in experiment [4] (setting [9]); above 1000 nM in experiment [5]; above 500 nM at PRMT5 [6]. Moreover, the MTAP intact/deleted ratio result in experiment [2] (setting [8]) is on record as “C (an IC50 ratio of less than 3 fold)”.

On to `Cc1cc(NC(=O)C(=O)N2C[C@@H](C)CC[C@@H]2c2ccc(N3CCN(C)CC3)cc2)cnc1N` (single isomer, unassigned) [Compound 1328], for which the IC50 is below 50 nM at PRMT5 [1] (setting [13]); below 100 nM in experiment [2] (setting [11]); below 50 nM at PRMT5 [3]; below 1000 nM in experiment [4] (setting [14]); below 100 nM in experiment [5]; 50 to 500 nM on PRMT5 [6]. Also, the “MTAP intact/deleted ratio” value in experiment [2] (setting [8]) was “B (an IC50 ratio greater than or equal to 3 fold but lower than 10 fold)”.

In the case of `Cc1cc(NC(=O)C(=O)N2C[C@H](C)CC[C@H]2c2cccc3[nH]ncc23)cnc1N` (single isomer, unassigned) [Compound 785], the IC50 at PRMT5 [1] (read-out: No Cofactor/rel IC50) was below 50 nM; in experiment [2] (setting [7]) it was below 100 nM; at PRMT5 [3] it was below 50 nM; in experiment [4] (setting [9]), below 1000 nM; in experiment [5] it was 100 to 1000 nM; on PRMT5 [6] it was 50 to 500 nM. Besides, in experiment [2] (setting [8]), the MTAP intact/deleted ratio entry is listed as “A (an IC50 ratio greater than or equal to 10 fold)”.

On to `Cc1ccc([C@@H]2CC[C@@H](C)CN2C(=O)C(=O)Nc2cnc(N)c(C)c2)cc1O` (racemic) [Compound 580, N-(6-amino-5-methylpyridin-3-yl)-2-(2-(3-hydroxy-4-methylphenyl)-5-methylpiperidin-1-yl)-2-oxoacetamide], for which the IC50 at PRMT5 [1] (read-out: No Cofactor/rel IC50) is 50 to 500 nM; in experiment [2] (setting [11]) it was below 100 nM; at PRMT5 [3], 50 to 500 nM; in experiment [4] (setting [12]), below 1000 nM; in experiment [5], 100 to 1000 nM; at PRMT5 [6] it was 50 to 500 nM. The MTAP intact/deleted ratio entry in experiment [2] (setting [8]) is “A (an IC50 ratio greater than or equal to 10 fold)”.

For the molecule `C[C@@H]1CC[C@@H](c2ccc(-c3nccs3)cc2)N(C(=O)C(=O)Nc2cncc(C(N)=O)c2)C1` (single isomer, unassigned) [Compound 783], the IC50 was 50 to 500 nM on PRMT5 [1] (read-out: No Cofactor/rel IC50); below 100 nM in experiment [2] (setting [7]); below 50 nM on PRMT5 [3]; 1000 to 10000 nM in experiment [4] (setting [9]); above 1000 nM in experiment [5]; 50 to 500 nM at PRMT5 [6]. Besides, in experiment [2] (setting [8]), the MTAP intact/deleted ratio result is given as “A (an IC50 ratio greater than or equal to 10 fold)”.

On to `Cc1ncc(NC(=O)C(=O)N2C[C@@H](C)CC[C@@H]2c2ccc3sc(C4CCN(C)CC4)nc3c2)cc1C(F)(F)F` [Compound 1300, 2-((2R,5)-5-methyl-2-(2-(1-methylpiperidin-4-yl)benzo[d]thiazol-5-yl)piperidin-1-yl)-N-(6-methyl-5-(trifluoromethyl)pyridin-3-yl)-2-oxoacetamide], for which the IC50 was below 50 nM at PRMT5 [1] (setting [13]); below 100 nM in experiment [2] (setting [11]); below 50 nM at PRMT5 [3]; below 1000 nM in experiment [4] (setting [14]); 100 to 1000 nM in experiment [5]; 50 to 500 nM on PRMT5 [6]. The “MTAP intact/deleted ratio” value in experiment [2] (setting [8]) was “A (an IC50 ratio greater than or equal to 10 fold)”.

With `CC1(C)CCC[C@H]2CN(C(=O)C(=O)Nc3cncc(C(N)=O)c3)CC[C@@H]21` (single isomer, unassigned) [Compound 197], the IC50 on PRMT5 [1] (read-out: No Cofactor/rel IC50) is above 500 nM; in experiment [2] (setting [7]), above 1000 nM; on PRMT5 [3] it was 50 to 500 nM; in experiment [4] (setting [10]), above 10000 nM; in experiment [5], above 1000 nM; at PRMT5 [6], 50 to 500 nM. The MTAP intact/deleted ratio entry in experiment [2] (setting [8]) is “C (an IC50 ratio of less than 3 fold)”.
